Source: patent publication EP2545914A1, “2-amino-2-oxoethyl trans-3-[5-(6-methoxy-naphtalen-1-yl)-1,3-dioxan-2-yl]propyl-carbamate for use in the treatment of persistent cancer pain” (SANOFI, priority 2011, dated 2013)
Where two headings read alike, the source gives them in different places.

Key:
[1] = system: mice inoculated with BO2 breast carcinoma cells; experiment: Tactile allodynia (Dynamic Plantar Aesthesiometer) in a model of bone metastatic cancer pain induced by BO2 cells; type: in vivo, female BALB/cByJ Ico-nu/nu mice; settings: for paw withdrawal thresholds to non-noxious stimulations versus vehicle-treated animals: p<0.0001; for Reversal of allodynia (%): T2h; for Delta values (Delta PWT): T2h minus T0
Method: The model of cancer pain MDA-MB-231 breast cancer cells cause the development of highly vascularized skeletal lesions in animals. Here, we chose to perform a model of bone metastasis induced by BO2 cells, a sub-clone of MDA-MB-231 cancer cells expressing the bioluminescent jellyfish protein (green fluorescent protein). BO2 cells were inoculated into the tail of nude mice. […] In our study, BO2 invasion of the hind paws was evaluated by combining both fluorescence imaging and X-Ray radiology with evaluation of allodynic-like behavior in the tumor-bearing hind paws. The aim of the study was to assess the anti-allodynic activity of Compound A in a model of bone metastatic cancer pain in mice, at the time when allodynia-like symptoms are fully developed.
Non-fasted female BALB/cByJ Ico-nu/nu mice (aged 4 weeks at the beginning of the experimental phase, Charles River Laboratories, L'Arbresle, France) were used for this study. One week before starting the experiment and to enable full acclimatization, mice were caged in groups of 10 animals per cage. They were housed in macrolon type III cages with filter hoods in a sterile room in which the air was continuously filtered to avoid any contamination. The sterility of the room was checked once a month and the cages were sterilized at 121°C for 30 minutes before use and changed twice a week. Room temperature was maintained at 22°C, and relative humidity at 60% ±10%. The animals were kept under a natural daylight cycle. The animals were fed with RO3 irradiated at 10 kGy, purchased from UAR (91360 Epinay sur Orge, France), and water sterilized at 121°C for 30 minutes. Water consumption was visually monitored daily and the bottles were changed twice a week. Food and water were given ad libitum. The animal bedding was produced by UAR and sterilized at 121°C for 30 minutes and renewed twice a week. One day before the beginning of the study, mice were implanted in the back with an electronic chip for identification purposes. The day of BO2 breast carcinoma inoculation into the tail vein, mice were placed in groups of 9 or 8 animals per cage. Tumor progression (fluorescence imaging +X-Ray radiology) associated with evoked pain behavior were measured at least once a week during the entire study (data available on request). This allowed us to ensure that only mice with tumor progression and pain-like behavior were selected to enter in the testing procedure.
Compound A as a base was prepared extemporaneously as follows: the compound was weighed and 0.5% of Tween 80 was added, followed by addition of 0.6% Methyl Cellulose. The resulting suspensions were maintained at room temperature under magnetic stirring until the administration. Compound A was administered via oral gavage in a volume of 10 mL/kg, once daily for 7 days. On the first day of treatment, Compound A was administered at 30 mg/kg. From day 2 to day 7, Compound A was administered at 10 mg/kg.
For the present study, 2 groups of 8 mice receiving the BO2 breast carcinoma cells and 1 group of 8 mice (control animals) receiving only the culture medium were used (Table 1.1). Table 1.1 - Design of the study
No animals were excluded for this study. However, one mouse died in one of the BO2-inoculated groups (mouse found dead in the cage on day 7), while no mice died in the control group (n = 8). No randomization was performed at the beginning of the experiment and mice were treated by cage. A seven day treatment with Compound A or vehicle was performed with evaluation of evoked pain at day 1, day 3 and day 7 post-treatment. As bone metastases were distributed in both hind-paws, we decided at the beginning of the study to arbitrarily measure pain-like behavior evoked by a stimulus in only one hind-paw (the right hind-paw). Pain-like behaviors before and after treatment with vehicle or Compound A were evaluated during 3 sessions (i.e. on day 1, day 3 and day 7). […]

[2] = system: UDP-glucuronosyl transferase; type: in vitro ADME, human; settings: for % Control (M6G formation) / % Control (M3G formation): Morphine 2mM, protein 0.5 mg/mL, 30 min
Method: Incubations were conducted in 2-mL polypropylene centrifuge tubes. Incubation mixtures containing HLM suspension and alamethicin (25 µg/mL) in 0.1 M potassium phosphate buffer (pH 7.4), were placed on wet ice for 5 min. […] Reactions were initiated by the addition of 50 mM UDPGA spiking solution. […] Samples were incubated aerobically in a water bath at 37 °C for the required amount of time and reactions terminated by the addition of 400 µL of the appropriate quench solution. The 2-mL centrifuge tubes were vortex mixed and stored in a -20 °C freezer for ca. 20 min prior to centrifugation at 13.3 x g, 4 °C for 10 min. Supernatants were analyzed by LC-MS/MS for morphine metabolites formation.
UGT-dependent activities were determined by monitoring the formation of enzyme specific metabolites from marker substrates. […] Incubation with selective inhibitors (positive control) was performed at a concentration above their established IC50 for the confirmation of enzyme activity and inhibitory effects.
Incubations were performed in 2-mL centrifuge tubes. Incubation mixtures containing HLM suspension and alamethicin (25 µg/mL) in 0.1 M potassium phosphate buffer (pH 7.4), were placed on wet ice for 5 min. […] Reactions were initiated by the addition of UDPGA. The final incubation mixture contained 0.5 mg/mL HLM, 2 mM MgCl2, 5 mM UDPGA, various concentration of Compound A or a selective inhibitor. Samples were incubated aerobically in a water bath at 37 °C for 30 min. The incubation systems were terminated by the addition of a 400-µL quenching solution. The 2-mL centrifuge tubes were vortex mixed and stored in a -20 °C freezer for approximately 20 min prior to centrifugation at 13.3 x g, 4 °C for 10 min. Supernatants were analyzed by LC-MS/MS.
Percent of Control = Cmet÷Ccontrol × 100% [formula] • Cmet: Concentration of the metabolite in the incubations in the presence of Compound A or selective inhibitor • Ccontrol: Concentration of the enzyme-specific metabolite in the incubations in the absence of Compound A and selective inhibitor • The IC50 for Compound A was estimated by non-linear regression analysis of individual sets of percent inhibition values using GraphPad Prism 5.

## COc1ccc2c(cccc2[C@H]2CO[C@H](CCCNC(=O)OCC(N)=O)OC2)c1 [Compound A, 2-amino-2-oxoethyl trans-3-[5-(6-methoxy-naphtalen-1-yl)-1,3-dioxan-2-yl]propyl-carbamate]
[1]; 10 mg/kg PO once daily, day 3 and day 7
  paw withdrawal thresholds to non-noxious stimulations versus vehicle-treated animals: significantly higher
[1]; Day 3, 10 mg/kg PO
  Reversal of allodynia (%): 45.06 ±3.11%
  Delta values (Delta PWT): 0.78 ±0.06
[1]; Day 7, 10 mg/kg PO
  Reversal of allodynia (%): 41.87 ±4.01%
  Delta values (Delta PWT): 0.79 ±0.08
[1]; acute oral dosing, allodynia fully installed
  evoked-pain induced by bone metastases in the hind-paw: significantly reversed
[1]; day 1, 30 mg/kg PO, Mean ±SEM
  Reversal of allodynia (%): 68.74 ±8.99%
  Delta values (Delta PWT): 1.04 ±0.13
[1]; day 1, T0 (baseline before administration), group dosed 30 mg/kg PO, Mean ±SEM
  PWT values at T0: 1.815 ±0.065 gram
[1]; day 7, T0 (before that day's administration), 10 mg/kg PO once daily, Mean ±SEM
  PWT values at T0: 1.728 ±0.050 gram
[1]; first day, 30 mg/kg PO
  paw withdrawal thresholds to non-noxious stimulations versus vehicle-treated animals: significantly higher
[1]; repeated (7 days) administration
  tolerance in analgesic effect: did not induce tolerance
[2]; 2 mM morphine, Compound A 0.5 to 250 µM, HLM
  IC50 (M3G and M6G formation): could not be estimated
[2]; Compound A 0.5 µM
  % Control (M6G formation): 96.9%
[2]; Compound A 1.0 µM
  % Control (M6G formation): 94.4%
[2]; Compound A 5.0 µM
  % Control (M6G formation): 102.4%
[2]; Compound A 10 µM
  % Control (M6G formation): 110.4%
[2]; Compound A 25 µM
  % Control (M6G formation): 105.8%
[2]; Compound A 50 µM
  % Control (M6G formation): 108.3%
[2]; Compound A 100 µM
  % Control (M6G formation): 97.4%
[2]; Compound A 250 µM
  % Control (M6G formation): 96.5%
[2]; Compound A 0.5 µm
  % Control (M3G formation): 97.7%
[2]; Compound A 1.0 µm
  % Control (M3G formation): 96.2%
[2]; Compound A 5.0 µm
  % Control (M3G formation): 106.0%
[2]; Compound A 10 µm
  % Control (M3G formation): 107.9%
[2]; Compound A 25 µm
  % Control (M3G formation): 108.3%
[2]; Compound A 50 µm
  % Control (M3G formation): 105.7%
[2]; Compound A 100 µm
  % Control (M3G formation): 92.7%
[2]; Compound A 250 µm
  % Control (M3G formation): 94.2%
[2]; according to in vitro results
  drug interaction with morphine: no significant drug interaction
[2]; human liver microsomes, M3G and M6G formation
  inhibition of morphine metabolism: no inhibition

## CC(=O)N1CCN(c2ccc(OCC3COC(Cn4ccnc4)(c4ccc(Cl)cc4Cl)O3)cc2)CC1 (centres unmarked) [ketoconazole, reference compound]
[2]; positive control, same conditions (2 mM morphine, HLM 0.5 mg/mL, 30 min)
  inhibition of M6G activity: ≥ 98.5%
